In paper PMC7557582, “Broad-Spectrum Antimicrobial Activity and Improved Stability of a D-Amino Acid Enantiomer of DMPC-10A, the Designed Derivative of Dermaseptin Truncates” (Antibiotics, 2020):
In brackets after ≈: the same amount, converted by molar mass. Non-standard residues stand in square brackets, D forms with d. Residues, ends and D or L forms follow the SMILES beside them. Cha = N[C@@H](CC1CCCCC1)C(=O)O

Key:
S. aureus (NCTC 10788) [1] = format: cell-based, Staphylococcus aureus
Experimental: (§1) Furthermore, the antimicrobial activity in the presence of MgCl2, CaCl2, NaCl and 10% fetal bovine serum (FBS) was investigated. In detail, 2 and 5 mM of MgCl2 and CaCl2, and 150 and 375 mM NaCl, were applied, respectively. The supplements were added into the medium that was used for diluting the bacteria suspension. Then, the diluted bacteria culture was mixed with the peptide stock solution in the 96-well plate, as mentioned above. The assay was performed three times and each assay contained 5 replicates.

E. coli (NCTC 10418) [2] = format: cell-based, Escherichia coli; settings: NCTC 10418, pH 7.4
Experimental: (§3) Gram-positive bacteria Staphylococcus aureus (NCTC 10788) and Enterococcus faecalis (NCTC 12697) and Gram-negative bacteria Escherichia coli (NCTC 10418), Pseudomonas aeruginosa (ATCC 27853), and Klebsiella pneumoniae (ATCC 43816) were tested. […] All the bacterial strains were inoculated in Mueller Hinton broth (MHB), pH 7.4 (Oxiod, Basingstoke, UK) at 37 °C. Then, the log-phase bacteria were mixed with the peptide at the concentrations from 512 to 1 µM in two-fold dilution, in a 96 well-plate. The wells contained sterilized MHB and bacteria cultures were employed as a blank and growth control, respectively.

[3] = test system: P. aeruginosa (ATCC 27853); format: cell-based, Pseudomonas aeruginosa; settings: ATCC 27853, pH 7.4
Experimental: as §3

[4] = cited from earlier work
Excerpt: Dermaseptins are a class of cationic AMPs that were discovered from the skin of Phyllomedusa frogs, usually consisting of 28–34 amino acids. They can form an amphipathic α-helix in amphiphilic environments, which makes them bind easily to bacterial lipid bilayers. Dermaseptins contain a conserved Trp residue in position three and a unique internal motif, -AAA/GKAAL/G/NA-, and exert broad-spectrum antimicrobial activity against a range of ESKAPE pathogens. […] Compared with the other AMPs applied using the same model, such as Japonicin-2LF [53], DMPC-10B exerted relatively stronger efficacy. Japonicin-2LF prevented around 50% mortality at 50 mg/kg in treatment of MRSA infection, but DMPC-10B achieved similar efficacy at 20 mg/kg.

MRSA (NCTC 12493) = format: cell-based, methicillin-resistant S. aureus; settings: NCTC 12493, pH 7.4
Experimental: as §3

trypsin = molecular target: T1, trypsin (Bos taurus, UniProt P00760); assay: Enzyme stability assay, trypsin; format: in vitro ADME; settings: peptide in PBS, peptide:trypsin 100:1 (m/m), time points 0-120 min, stopped with 10% TFA, RP-HPLC peak area, three replicates
T1 construct: gene PRSS1
T1 sequence (P00760 24-246): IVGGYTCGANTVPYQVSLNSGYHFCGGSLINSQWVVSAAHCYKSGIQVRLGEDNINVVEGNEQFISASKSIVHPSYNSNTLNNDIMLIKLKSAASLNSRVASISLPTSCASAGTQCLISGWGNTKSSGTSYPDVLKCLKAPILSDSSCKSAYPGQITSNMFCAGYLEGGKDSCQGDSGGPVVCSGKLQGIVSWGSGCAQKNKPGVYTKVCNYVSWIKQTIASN
Experimental: (§2) The peptides were dissolved in phosphate-buffered saline (PBS) and mixed with the respective enzyme (trypsin and chymotrypsin) with a ratio of 100:1 (m/m). Then, 135 µl of the reaction solution was transferred into a new vial. The hydrolysis reaction was immediately terminated by adding 15 µl of 10% TFA at the different time points (0, 5, 10, 20, 40, 60, 120 min). The mixture was then analyzed by reverse-phase HPLC and respective peak areas were calculated to obtain the residual amount of peptides at different times.

[5] = test system: K. pneumoniae (ATCC BAA 2342); format: cell-based, Klebsiella pneumoniae; settings: ATCC BAA 2342, pH 7.4
Experimental: as §3

S. aureus (NCTC 10788) [6] = format: cell-based, Staphylococcus aureus; settings: NCTC 10788, pH 7.4
Experimental: as §3

E. faecalis (NCTC 12697) = format: cell-based, Enterococcus faecalis; settings: NCTC 12697, pH 7.4
Experimental: as §3

E. coli (NCTC 10418) [7] = format: cell-based, Escherichia coli
Experimental: as §1

[8] = test system: K. pneumoniae (ATCC BAA 1705); format: cell-based, Klebsiella pneumoniae; settings: ATCC BAA 1705, pH 7.4
Experimental: as §3

chymotrypsin = chymotrypsin (Bos taurus, UniProt P00766); assay: Enzyme stability assay, chymotrypsin; format: in vitro ADME; settings: peptide in PBS, peptide:chymotrypsin 100:1 (m/m), time points 0-120 min, stopped with 10% TFA, RP-HPLC peak area, three replicates
Experimental: as §2

[9] = test system: K. pneumoniae (ATCC 43816); format: cell-based, Klebsiella pneumoniae; settings: ATCC 43816, pH 7.4
Experimental: as §3

CC(C)C[C@H](NC(=O)[C@H](C)N)C(=O)N[C@@H](Cc1c[nH]c2ccccc12)C(=O)N[C@@H](CCCCN)C(=O)N[C@@H](CCCCN)C(=O)N[C@@H](CC(C)C)C(=O)N[C@@H](CC(C)C)C(=O)N[C@@H](CCCCN)C(=O)N[C@@H](CCCCN)C(=O)N[C@@H](CC1CCCCC1)C(N)=O [DMPC-10A] (H-ALWKKLLKK[Cha]-NH2)
MIC with CaCl2 5 mM (S. aureus (NCTC 10788) [1]): 64 µM | MIC with FBS 10% (S. aureus (NCTC 10788) [1]): 16 µM | MIC with MgCl2 5 mM (S. aureus (NCTC 10788) [1]): 64 µM | MIC with NaCl 150 mM (S. aureus (NCTC 10788) [1]): 32 µM | MIC with NaCl 375 mM (S. aureus (NCTC 10788) [1]): 64 µM | MIC, no additive (S. aureus (NCTC 10788) [1]): 4 µM (≈ 5.12 µg/mL) | MBC (E. coli (NCTC 10418) [2]): 8 µM (≈ 10.2 µg/mL) | MIC (E. coli (NCTC 10418) [2]): 8 µM (≈ 10.2 µg/mL) | MBC [3]: 4 µM (≈ 5.12 µg/mL) | MIC [3]: 4 µM (≈ 5.12 µg/mL) | hemolytic effect [4]: considerable hemolytic effect | MBC (MRSA (NCTC 12493)): 16 µM (≈ 20.5 µg/mL) | MIC (MRSA (NCTC 12493)): 8 µM (≈ 10.2 µg/mL) | time in which trypsin completely cleaved the peptide (trypsin): 10 min | MBC [5]: 16 µM (≈ 20.5 µg/mL) | MIC [5]: 16 µM (≈ 20.5 µg/mL) | MBC (S. aureus (NCTC 10788) [6]): 8 µM (≈ 10.2 µg/mL) | MIC (S. aureus (NCTC 10788) [6]): 4 µM (≈ 5.12 µg/mL) | MBC (E. faecalis (NCTC 12697)): 64 µM (≈ 81.9 µg/mL) | MIC (E. faecalis (NCTC 12697)): 64 µM (≈ 81.9 µg/mL) | MIC with CaCl2 5 mM (E. coli (NCTC 10418) [7]): 64 µM | MIC with FBS 10% (E. coli (NCTC 10418) [7]): 16 µM | MIC with MgCl2 5 mM (E. coli (NCTC 10418) [7]): 64 µM | MIC with NaCl 150 mM (E. coli (NCTC 10418) [7]): 16 µM | MIC with NaCl 375 mM (E. coli (NCTC 10418) [7]): 32 µM | MIC, no additive (E. coli (NCTC 10418) [7]): 8 µM (≈ 10.2 µg/mL) | MBC [8]: 32 µM (≈ 41 µg/mL) | MIC [8]: 32 µM (≈ 41 µg/mL) | time in which chymotrypsin cleaved the peptide (chymotrypsin): 40 min | MBC [9]: 64 µM (≈ 81.9 µg/mL) | MIC [9]: 4 µM (≈ 5.12 µg/mL)
